Assays:
Type in all cases: functional
[1] = system: MCF7; assay: Cytotoxicity against chemo-sensitive human MCF7 cells assessed as inhibition rate at 5 uM incubated for 48 hrs by CCK8 assay relative to control
[2] = system: NCI/ADR-RES; assay: Cytotoxicity against doxorubicin resistant human MCF-7/ADR cells assessed as inhibition rate at 5 uM incubated for 48 hrs by CCK8 assay relative to control
[3] = system: NCI/ADR-RES; assay: Reversal fold, ratio of doxorubicin IC50 to doxorubicin IC50 in presence of test compound for reversal of P-gp mediated multidrug resistance in doxorubicin resistant human MCF-7/ADR cells incubated for 48 hrs by CCK-8 assay

Row | SMILES | inhibition at 5 µM [1] [%] | inhibition at 5 µM [2] [%] | Ratio IC50 [3]
1 | COc1ccc(NC(=O)c2cccc([Se]c3c[nH]c4ncccc34)c2)cc1OC | 6.3 | 2 | 4.2
2 | COc1ccc(NC(=O)c2ccc3[nH]cc([Se]c4cccc(C(=O)N5CCc6cc(OC)c(OC)cc6C5)c4)c3c2)cc1 | 5.9 | 8.7 | 9.1
3 | COc1cc2c(cc1OC)CN(C(=O)c1cccc([Se]c3c[nH]c4ccc(C(=O)NCCN(C)C)cc34)c1)CC2 | 9.7 | 13.6 | 7.5
4 | COc1ccc(NC(=O)c2ccc3[nH]cc([Se]c4cccc(C(=O)NCc5ccccn5)c4)c3c2)cc1 | 6.6 | 9 | 4.4
5 | O=C(NCc1ccccn1)c1cccc([Se]c2c[nH]c3ccc(C(=O)Nc4ccc(F)cc4)cc23)c1 | 7 | 10.1 | 2.7
6 | O=C(NCc1ccccn1)c1cccc([Se]c2c[nH]c3ccccc23)c1 | 17.5 | 15.1 | 8.49
7 | COc1ccc(-c2ccc(C(=O)N3CCc4cc(OC)c(OC)cc4C3)o2)cc1 | 11.7 | 16.3 | 23.7
8 | COc1ccc(CNC(=O)c2ccc([Se]c3c[nH]c4ccccc34)cc2)cc1OC | 11.9 | 18.3 | 3.61
9 | COc1cc2c(cc1OC)CN(CCc1ccc(NC(=O)c3cc(OC)c(OC)cc3NC(=O)c3cnc4ccccc4c3)cc1)CC2 | 36.9 | 45.1 | 261.6
10 | COc1cc2c(cc1OC)CN(C(=O)c1cccc([Se]c3c[nH]c4ncccc34)c1)CC2 | 7.7 | 5.8 | 2.8
11 | COc1ccc(CNC(=O)c2cccc([Se]c3c[nH]c4ncccc34)c2)cc1OC | 15.7 | 13.4 | 4
12 | COc1cc2c(cc1OC)CN(C(=O)c1cccc([Se]c3c[nH]c4ccc(C(=O)NC(C)C)cc34)c1)CC2 | 11.2 | 13 | 3.9
13 | COc1cc2c(cc1OC)CN(C(=O)c1cccc([Se]c3c[nH]c4ccc(C(=O)Nc5ccc(F)cc5)cc34)c1)CC2 | 9.6 | 1.3 | 6.9
14 | COc1ccc(Cn2cc([Se]c3cccc(C(=O)Nc4ccc(OC)c(OC)c4)c3)c3ccccc32)cc1 | 4.2 | 7 | 16.4
15 | CNC(=O)c1cccc2c([Se]c3cccc(C(=O)NCc4ccccn4)c3)c[nH]c12 | 9.2 | 13.2 | 2
16 | O=C(NCc1ccccn1)c1cccc([Se]c2c[nH]c3ccc(F)cc23)c1 | 3.6 | 13.5 | 2.7
17 | COc1cc2c(cc1OC)CN(C(=O)c1cccc([Se]c3c[nH]c4ccc(F)cc34)c1)CC2 | 17.4 | 26 | 95.1

Reference: ChEMBL document CHEMBL5505974, “Design, synthesis, and bioactivity evaluation of novel indole-selenide derivatives as P-glycoprotein inhibitors against multi-drug resistance in MCF-7/ADR cell” (Eur J Med Chem, 2024)
